Tests used:
[1] = tested on: Mus musculus; assay: Compound was tested in vivo for anticonvulsant activity in mouse MEST test (maximal electroshock seizure threshold) at a peroral dose of 30 mg/kg; format: functional; conditions: route oral
[2] = species: Mus musculus; assay: Compound was evaluated for its binding affinity at the anticonvulsant binding site by displacement of [3H]- SB 204269 from mouse forebrain membranes; parameters: species or system Brain, Membrane
[3] = tested on: Mus musculus; assay: Compound was tested in vivo for anticonvulsant activity in mouse MEST test (maximal electroshock seizure threshold) at a peroral dose of 10 mg/kg; format: functional; conditions: route oral

SMILES	Activity [1] [%]	Log Ki [2]	Activity [3] [%]
CC1(C)Oc2cc3c(cc2[C@H](NC(=O)c2ccc(F)c(Cl)c2)[C@H]1O)C(=O)CCC3	98	-7.6	–
CC1(C)Oc2ccc3c(c2[C@H](NC(=O)c2ccc(F)cc2)[C@H]1O)CCCC3=O	–	< -5	–
CC(=O)c1cc2c(cc1C)OC(C)(C)[C@H](O)[C@H]2NC(=O)c1ccc(F)cc1	–	-6.15	–
CC(=O)c1ccc2c(c1C)[C@H](NC(=O)c1ccc(F)cc1)[C@@H](O)C(C)(C)O2	–	-5.02	–
CC(=O)c1ccc2c(c1)[C@H](NC(=O)c1ccc(F)cc1)[C@@H](O)C(C)(C)O2 [CARABERSAT]	–	-7.32	–
CC(=O)c1ccc2c(c1)[C@H](NC(=O)c1ccc(F)c(Cl)c1)[C@@H](O)C(C)(C)O2	–	-7.91	138
